This is an account of results in patent US7250397B2, “Antiarrhythmic peptides” (Zealand Pharma A/S, priority 2000, dated 2007).

Test [1] has as its system calcium-induced arrythmias. Briefly: Calcium-induced arrhythmia model in mice. The format is in vivo. Conditions: maximal effect; i.v.; time until 2nd degree AV-block during CaCl2 infusion relative to vehicle treated mice. As to the method: The antiarrhythmic effects of compounds of this invention were tested in an in vivo model of calcium-induced arrythmias according to the model of Lynch et al.^[37]. […]. Commercial solutions of hypnorm and midazolam were diluted 1:1 in distilled water and one part diluted Hypnorm® is mixed with one part diluted midazolam.
The anaesthesia was induced by s.c. administration in a dose of 0.05-0.075 μl/10 gram mouse. An i.v cannula was inserted into the tail vein. The lead II ECG signal was recorded continuously by positioning of a stainless steel ECG electrodes on the right forelimb and on the left hind limb. The ground electrode was placed on the right hind limb. The signal was amplified (x 5.000-10.000) and filtered (0.1-150 Hz) via a Hugo Sachs Electronic model 689 ECG module. The analogue signal was digitised via a 12 bit data acquisition board (Data Translation model DT321) and sampled at 1000 Hz using the Notocord HEM 3.1 software for Windows NT. After a 10-min equilibration period, the test sample of drug was injected into the tail vein. Mice pre-treated with vehicle were tested as a measure of the control level in untreated animals. The injection volume was 100 μl in all experiments. Infusion of CaCl2 (30 mg/ml, 0.1 ml/min≈100 mg/kg/min (calciumchlorid-2-hydrat, Riedel-de Häen, Germany)) was started 3 min after i.v. administration of drug or vehicle. The time lag to onset of 2nd degree AV-block was determined as the time from the start of CaCl2 infusion until the first arrhythmic event occured. An event of 2nd degree AV-block was defined as intermittent failure of the AV conduction characterised by a P-wave without the concomitant QRS complex.
Responses were expressed relative to the time until 2nd degree AV-block occurred in vehicle treated mice.

The subject of test [2] is CHO cells. Briefly: In situ binding of [125I]AAP10 on intact CHO cells. The conditions noted are these: overnight at 4° C. As to the method:
CHO cells are seeded in 24-multi well dishes in a density of 7,900 cells/cm^2 (˜15,000 cells/well) and grown for 3 Days In Vitro (DIV) in 1 ml/well of F-12K Nutrient Mixture supplemented with […] (FCS) and 1000 units penicillin/1000 μg streptomycin (pen/strep) in an atmosphere of 5% CO2 and 100% humidity at 37° C. The cell density has at that time increased to 295,000 cells/cm^2 (152 pgprot/cell˜85 μgprot/well).
On the day of analysis cells are removed from the incubator and each well is washed twice with, depending on the experiment, either 2 ml pre-warmed (37° C.) or ice-cold (0° C.) D-PBS to remove serum. It is important to keep the period to a minimum during which cells are left without physiological solutions to avoid that they dry out during washing procedures. The cold washed cells are used directly for binding assays while the warm washed cells are used for experiments with glucose and oxygen deprivation.
Cells are incubated for 10 min in an N2-atmosphere in glucose free D-PBS (pH 7.2) pre-equilibrated with N2 for at least 10 min at 37° C. Control cells are incubated likewise for 10 min at 37° C., only, at normal atmospheric conditions and in D-PBS containing glucose (6 mM). […]
0.25 ml of 0.5% Triton-X-100 (v/v) is added to each well and cells left for at least 1 h to solubilize. […] The vials are counted in a γ-counter.

The subject of test [3] is guinea pig papillary muscle. The conditions noted are these: 1 μM; normoxic conditions; cited from earlier work.
The subject of test [4] is membranes from rabbit heart. Conditions: read-out: value given for AAP10 by Dhein et al.; cited from earlier work.
The subject of test [5] is phospho-inositol turnover in neonatal rat cardiomyocytes. Briefly: Phosphoinositol turnover in rat primary cardiomyocytes. The format is cell-based. Conditions: for EC50: Rattus norvegicus, Cardiomyocyte. As to the method:
Neonatal Wistar rats (1-2 days old) are used. Hank's calcium- and magnesium-free balanced salt solution, buffered with 10 mM HEPES is used for washing during cell separation procedures. The hearts are excised, the ventricles isolated and the tissue cut into small pieces. The myocardial cells are isolated by stepwise enzymatic degradation with collagenase 0.05%, as described by^[35]. After repeated rounds of centrifugation and washing, the precipitated cells are resuspended in culture medium M199 with Earle's salt, 10% NCS, penicillin (75 U/mL), and streptomycin (75 U/mL) and pre-plated in a Petri dish for 90 minutes. The non-adherent cells are collected in the culture medium and plated in multidishes at 2.5*10^5 cells/well. The cultures are kept in a water-saturated CO2-incubator at 37° C. The cardiomyocyte cultures are used for analyses after 6-7 days.
Cardiomyocyte cultures are incubated for 48 hours in culture medium containing […] myo-[2-^3H]inositol to label the inositol phospholipids. On the day of analysis the medium is replaced by a buffer solution containing lithium and incubated at 37° C., as described by Meier et al.^[36]. After at least five minutes this buffer is replaced by the same volume of buffer containing test compound and incubated for exactly 20 minutes. The reaction is stopped by rapid replacement of the buffer by ice cold 4% v/v perchloric acid (PCA) and incubation for at least 20 minutes at 0° C. The PCA-extract is neutralised and the [^3H]inositol phosphates are separated by anion-exchange chromatography using Amprep™ columns containing 100 mg SAX Quaternary amine. The [^3H]inositol mono-phosphates are eluted and radioactivity in the fraction measured by liquid scintillation counting.
Before adding test substances to the cultures, the cells are depleted of glucose and oxygen by incubating them in a N2-atmosphere in glucose-free lithium-buffer for 10 minutes at 37° C. Control cells are incubated likewise only at normal atmospheric conditions and in a buffer containing glucose.

[ ]: non-standard residue; d: D form. The star is where a group is joined. Hyp = O=C(O)[C@@H]1C[C@@H](O)CN1; dHyp = O=C(O)[C@H]1C[C@H](O)CN1; T4C = not defined here; Acm = CC(=O)NC*; Sar = CNCC(=O)O

Turning to “Ac-Tyr-Pro-4Hyp-Gly-Ala-Gly-OH (Ac-YP[Hyp]GAG-OH; SMILES CC(=O)N[C@@H](Cc1ccc(O)cc1)C(=O)N1CCC[C@H]1C(=O)N1C[C@H](O)C[C@H]1C(=O)NCC(=O)N[C@@H](C)C(=O)NCC(=O)O) [Compound 1]”, in test [1], the In vivo activity entry is “+ (15-29% increase in time until arrhythmia)”.

For the molecule “cyclo(-Gly-Ala-Gly-Hyp-Pro-Tyr-Gln-) (cyclo(GAG[Hyp]PYQ); SMILES C[C@@H]1NC(=O)CNC(=O)[C@H](CCC(N)=O)NC(=O)[C@H](Cc2ccc(O)cc2)NC(=O)[C@@H]2CCCN2C(=O)[C@@H]2C[C@@H](O)CN2C(=O)CNC1=O) [Compound 35]”, the In vivo activity entry in test [1] is on record as “++ (30-50% increase in time until arrhythmia)”.

With “H-GP[Hyp]GAG-OH [Compound CE1, reference compound]”, the In vivo activity entry in test [1] was “++ (30-50% increase in time until arrhythmia)”.

Consider “ASAL(mono-iodo)-Pro-Hyp-Gly-Ala-Gly-NH2 [Compound 32]”, for which, in test [1], the In vivo activity result is “+++ (>60% increase in time until arrhythmia)”. Moreover, in test [2], the IC50 was 0.5 nM.

“H-Hyp-Pro-Tyr-Asn-Gly-Ala-Gly-NH2 (H-[Hyp]PYNGAG-NH2; SMILES C[C@H](NC(=O)CNC(=O)[C@H](CC(N)=O)NC(=O)[C@H](Cc1ccc(O)cc1)NC(=O)[C@@H]1CCCN1C(=O)[C@@H]1C[C@@H](O)CN1)C(=O)NCC(N)=O) [Compound 28]”: the In vivo activity result in test [1] is on record as “(+) (≦15% increase in time until arrythmia)”.

In the case of “Ac-D-Tyr(3,5-di-I)-D-Pro-D-Hyp-Gly-D-Ala-Gly-NH2 [Compound 24]”, the IC50 in test [2] worked out at 65 nM.

Regarding H-[Sar]A[Sar][Hyp]PY-NH2 [Compound 29], in test [1], the In vivo activity result was “+ (15-29% increase in time until arrhythmia)”.

H-GAG[dHyp]PY-NH2 [Compound 5]: the In vivo activity result in test [1] is given as “++ (30-50% increase in time until arrhythmia)”.

As to H-GAG[dHyp][dP]Y-NH2 [Compound 10], in test [1], the In vivo activity result is reported as “+++ (>60% increase in time until arrhythmia)”.

“H-Gly-Ala-Gly-PC-Pro-Tyr-NH2 (GAGPY; PC residue; C-terminal amide; Description of Artificial Sequence: Synthetic antiarrythmic peptide; PC between positions 3 and 4) [Compound 14]”: the In vivo activity result in test [1] is on record as “+ (15-29% increase in time until arrhythmia)”.

As for “H-Gly-Ala-Gly-Asn-Tyr-NH2 (H-GAGNY-NH2) [Compound 39]”, the In vivo activity entry in test [1] is “+++ (>60% increase in time until arrhythmia)”.

Consider “Cyclo(Tyr-Pro-4Hyp-Gly-Ala-Gly-Asn) [Compound 3]”, for which the In vivo activity result in test [1] is listed as “+++ (>60% increase in time until arrhythmia)”.

As to “3-(4-hydroxyphenyl)propionyl-Pro-Hyp-Gly-Ala-Gly-OH [Compound CE3, reference compound]”, the In vivo activity result in test [1] is recorded as “++ (30-50% increase in time until arrhythmia)”.

Ac-Gly-Asn-Tyr-NH2 [Compound 40]: the In vivo activity result in test [1] is given as “++ (30-50% increase in time until arrhythmia)”.

Regarding H-GAG[Hyp]PY-NH2 [Compound CE2], the decrease of stimulus-response-interval entry in test [3] is recorded as “about 10%”. In addition, the In vivo activity entry in test [1] is reported as “+++ (>60% increase in time until arrhythmia)”. Further, in test [4], the IC50 was 0.2 nM. Moreover, the “EC50 relative to the EC50 of Compound 2” value in test [5] (during normoxia) is listed as 200 fold; in test [5] (metabolic stress induced by anoxia and glucose deprivation), 10 fold.

For the molecule “H-Gly-Ala-Sar-Hyp-Pro-Tyr-NH2 (H-GA[Sar][Hyp]PY-NH2; SMILES C[C@H](NC(=O)CN)C(=O)N(C)CC(=O)N1C[C@H](O)C[C@H]1C(=O)N1CCC[C@H]1C(=O)N[C@@H](Cc1ccc(O)cc1)C(N)=O) [Compound 30]”, the In vivo activity entry in test [1] is on record as “++ (30-50% increase in time until arrhythmia)”.

With H-Gly-Asn-Tyr-NH2 [Compound 41], in test [1], the In vivo activity result is listed as “++ (30-50% increase in time until arrhythmia)”.

With `NC[C@H](O)c1ccc(O)c(O)c1` [Noradrenaline], the concentration giving a half-maximal response (EC50) (usually the concentration needed to bring the measured effect to its halfway point) in test [5] (atmosphere of N2 and depleted of glucose) came out at 303 nM; in test [5] (normal atmospheric and nutritional conditions), 203 nM.

As to “H-C(Acm)GAG[Hyp]PYC(Acm)-NH2 [Compound 16]”, in test [1], the In vivo activity entry is reported as “+ (15-29% increase in time until arrhythmia)”.

“cyclo(-Gly-Ala-Gly-Hyp-Pro-Tyr-Asn-) (cyclo(GAG[Hyp]PYN)) [Compound 36]”: the In vivo activity result in test [1] was “+++ (>60% increase in time until arrhythmia)”.

As for “H-Gly-Ala-Gly-T4C-Pro-Tyr-NH2 (H-GAG[T4C]PY-NH2; reading uncertain; also: printed as H-Gly-Ala-Gly-T4C-Pro-Tyr-NH2) [Compound 12]”, the In vivo activity result in test [1] is listed as “++ (30-50% increase in time until arrhythmia)”.

Turning to H-GAG[dHyp]AY-NH2 [Compound 9], in test [1], the In vivo activity entry is on record as “+ (15-29% increase in time until arrhythmia)”.
